# Data taken from PubChem BioAssay (NCI).
#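 Five concentrations, 48 hours, 96-well plates. GI50 marks 50% less growth. TGI is the concentration that stops growth completely.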 *1 amine or outer side, *2 acyl side, *3 side chain or, on linkers, in order; H or OH if unused. Where a SMILES comes first, the peptide text is derived from it. [ ]: non-standard residue; d: D form. The star is where a group is joined. X31 = CC(=O)N(C)SCC(N[*:1])C(=O)[*:2]; Fmoc = O=C(OCC1c2ccccc2-c2ccccc21)*; For = O=C*
# Assays:
# Experiment in all cases: NCI anticancer screen, dose series, 48 h
# A498 renal = system: A498 renal
# HT29 colon = system: HT29 colon
# IGROV1 ovarian = system: IGROV1 ovarian
# NCI-H522 lung = system: NCI-H522 lung
# NCI/ADR-RES ovarian = system: NCI/ADR-RES ovarian
# OVCAR-5 ovarian = system: OVCAR-5 ovarian
# OVCAR-8 ovarian = system: OVCAR-8 ovarian
# SNB-75 CNS = system: SNB-75 CNS
# SR leukemia = system: SR leukemia
# U251 CNS = system: U251 CNS
Structure (SMILES),TGI (A498 renal),TGI (HT29 colon),TGI (IGROV1 ovarian),TGI (NCI-H522 lung),TGI (NCI/ADR-RES ovarian),TGI (OVCAR-5 ovarian),TGI (OVCAR-8 ovarian),TGI (SNB-75 CNS),TGI (SR leukemia),TGI (U251 CNS),GI50 (A498 renal),GI50 (HT29 colon),GI50 (IGROV1 ovarian),GI50 (NCI-H522 lung),GI50 (NCI/ADR-RES ovarian),GI50 (OVCAR-5 ovarian),GI50 (OVCAR-8 ovarian),GI50 (SNB-75 CNS),GI50 (SR leukemia),GI50 (U251 CNS)
Cc1nc(Nc2nc3ccccc3[nH]2)[nH]c(=O)c1CCO,> 100 µM,> 100 µM,> 57 µM,> 100 µM,> 100 µM,> 100 µM,> 100 µM,> 100 µM,> 100 µM,> 100 µM,–,–,–,–,–,–,–,–,–,–
S=C(Nc1cccc(C2(N3CCCCC3)CCCCC2)c1)Nc1cccc(C2(N3CCCCC3)CCCCC2)c1,35.1 µM,66.1 µM,> 100 µM,41 µM,> 100 µM,> 100 µM,59.2 µM,28.6 µM,31.6 µM,50.4 µM,–,–,–,–,–,–,–,–,–,–
Cc1cc(C(O)CNC(C)CCn2cnc3c2c(=O)n(C)c(=O)n3C)ccc1O (stereo not drawn),> 100 µM,> 100 µM,> 100 µM,> 100 µM,> 100 µM,> 100 µM,> 100 µM,> 100 µM,> 100 µM,> 100 µM,–,–,–,–,–,–,–,–,–,–
Nc1cc(N)c(N=Nc2cccc3c(S(=O)(=O)O)cccc23)cc1N=Nc1cc([N+](=O)[O-])ccc1O,> 100 µM,> 100 µM,> 100 µM,61.4 µM,93.2 µM,93.9 µM,> 100 µM,> 100 µM,72.6 µM,> 100 µM,–,–,–,–,–,–,–,–,–,–
CCCc1cc(-c2ccc(-c3cc(CCC)c(C=O)[nH]3)s2)[nH]c1C=O,> 100 µM,> 19.9 µM,> 100 µM,17.9 µM,> 100 µM,58.7 µM,> 100 µM,> 100 µM,> 100 µM,> 100 µM,–,–,–,–,–,–,–,–,–,–
COc1ccccc1Cn1[nH]c(=O)c2cc([N+](=O)[O-])ccc21,> 100 µM,> 100 µM,> 100 µM,> 100 µM,> 100 µM,> 100 µM,> 100 µM,> 100 µM,> 100 µM,–,–,–,–,–,–,–,–,–,–,–
COc1cc2c(cc1OCCCCN1CCN(CCCCOc3cc4c(cc3OC)C(=O)N3CCC[C@H]3C=N4)CC1)N=C[C@@H]1CCCN1C2=O,0.0692 µM,0.656 µM,–,1.49 µM,16.5 µM,0.163 µM,18.6 µM,–,> 100 µM,> 100 µM,–,–,–,–,–,–,–,–,–,–
CC(=O)N(C)SCC(NC(=O)C(Cc1ccccc1)NC(=O)OCC1c2ccccc2-c2ccccc21)C(=O)NC(Cc1ccccc1)C(=O)NC(Cc1cn(C=O)c2ccccc12)C(=O)NC(CCCCNC(=O)OCC1c2ccccc2-c2ccccc21)C(=O)NC(C(=O)NC(CSN(C)C(C)=O)C(=O)NC(C(N)=O)C(C)O)C(C)O (stereo not drawn) (Fmoc-F[X31]FW(For)K(Fmoc)T[X31]T-NH2; configuration not given here),–,> 100 µM,> 100 µM,> 100 µM,> 100 µM,> 100 µM,> 100 µM,> 100 µM,> 100 µM,> 100 µM,–,–,–,–,–,–,–,–,–,–
CNc1ncnc2c1cnn2Cc1cn(CCCCO)nn1,> 100 µM,> 100 µM,> 100 µM,> 100 µM,> 100 µM,> 100 µM,> 100 µM,–,> 100 µM,> 100 µM,–,–,–,–,–,–,–,–,–,–
CC(=O)/C(=C(/Br)I)c1ccccc1,28.5 µM,13.8 µM,49.3 µM,3.11 µM,45 µM,32.1 µM,28.1 µM,39.6 µM,13.5 µM,26.5 µM,–,–,–,–,–,–,–,–,–,–
Cc1ccc(S(=O)(=O)Nc2cc(Sc3ccccc3)c(O)c3ccccc23)cc1,28.8 µM,53.1 µM,10.4 µM,27.6 µM,9.31 µM,21.3 µM,5.88 µM,25.5 µM,12.6 µM,3.84 µM,13.1 µM,20.6 µM,3.5 µM,13.1 µM,3 µM,7.11 µM,2.28 µM,12.9 µM,3.27 µM,1.94 µM
O=C(Nc1ccc(S(=O)(=O)Nc2ncccn2)cc1)c1c2ccccc2nc2ccccc12,> 100 µM,> 100 µM,> 100 µM,> 100 µM,> 100 µM,> 100 µM,> 100 µM,> 100 µM,> 100 µM,> 100 µM,–,–,–,–,–,–,–,–,–,–
C#CC(O)Cc1ccc(OC)c2occc12 (stereo not drawn),> 100 µM,> 100 µM,> 100 µM,> 100 µM,> 100 µM,> 100 µM,> 100 µM,> 100 µM,> 100 µM,> 100 µM,–,–,–,–,–,–,–,–,–,–
Cc1ncc(CO)c(C=NCCCCCCN=Cc2c(CO)cnc(C)c2O)c1O,> 100 µM,> 100 µM,> 100 µM,> 100 µM,> 100 µM,> 100 µM,> 100 µM,> 100 µM,> 100 µM,> 100 µM,–,–,–,–,–,–,–,–,–,–
Cc1cn2c(/C=C3/C(=O)Nc4ccccc43)c(C)nc2s1,> 100 µM,15.5 µM,> 100 µM,21.5 µM,> 100 µM,> 100 µM,> 100 µM,> 100 µM,47 µM,10.9 µM,–,–,–,–,–,–,–,–,–,–
Oc1ccccc1-n1nc2ccc3nonc3c2n1,–,> 100 µM,> 100 µM,> 100 µM,> 100 µM,> 100 µM,> 100 µM,> 100 µM,> 100 µM,> 100 µM,–,–,–,–,–,–,–,–,–,–
O=C(O)CCc1nc2cc3ccccc3cc2[nH]c1=O,> 100 µM,> 100 µM,> 100 µM,> 100 µM,> 100 µM,> 100 µM,> 100 µM,> 100 µM,> 100 µM,> 100 µM,–,–,–,–,–,–,–,–,–,–
CCN1C(=O)CS/C1=N\NC(=O)CSc1nc2ccccc2c(=O)n1CC,> 100 µM,–,> 100 µM,> 100 µM,> 100 µM,> 100 µM,> 100 µM,> 100 µM,> 100 µM,> 100 µM,–,–,–,–,–,–,–,–,–,–
CC(C)OP(=O)(OC(C)C)C(Nc1cccc(C(F)(F)F)c1)c1ccccc1 (stereo not drawn),> 100 µM,> 100 µM,> 100 µM,> 100 µM,> 100 µM,> 100 µM,> 100 µM,> 100 µM,> 100 µM,> 100 µM,–,–,–,–,–,–,–,–,–,–
